{
  "source": "patent US9750700B2",
  "about": "(Natco Pharma Limited, priority 2011, dated 2017)",
  "origin": "cited, not measured here",
  "details": "crystalline form of Imatinib mesylate",
  "data": [
    {"smiles": "CS(=O)(=O)O.Cc1ccc(NC(=O)c2ccc(CN3CCN(C)CC3)cc2)cc1Nc1nccc(-c2cccnc2)n1", "note": "[α-crystalline form]", "values": [
      {"measurement": "hygroscopicity", "result": "hygroscopic"}
    ]}
  ]
}
